Organism: Rattus norvegicus
Experiment: Open TG-GATES - Regimen: Single
Assay type: toxicity, organism-based, Sprague-Dawley
Parameters: regimen Single, gender Male, age 6 weeks
Details: in vivo, po, 60 mg/kg, route gavage, dose level High; for APTT / Bas / Eos / Fbg / Hb / Ht / Lym / MCH / MCHC / MCV / Mono / Neu / PT / Plat / RBC / Ret / WBC: tissue Blood; for LIVER: tissue Liver; for A/G / ALP / ALT / AST / BUN / CRE / Ca / Cl / DBIL / GLC / IP / K / LDH / Na / PL / RALB / TBIL / TC / TG / TP / gamma-GTP: tissue Plasma

Structure (SMILES): O=[N+]([O-])c1ccc(O)c([N+](=O)[O-])c1 [2,4-DINITROPHENOL]
- TERMINAL_BW (3 h): 203.7 g
- APTT (3 h): 17.2 s
- Bas (3 h): 0%
- Eos (3 h): 0.4%
- Fbg (3 h): 232.6 mg/dL
- Hb (3 h): 12.5 g/dL
- Ht (3 h): 37.7%
- Lym (3 h): 79.6%
- MCH (3 h): 21.3 pg
- MCHC (3 h): 33.4%
- MCV (3 h): 63.9 fL
- Mono (3 h): 7%
- Neu (3 h): 13.2%
- PT (3 h): 12.4 s
- Plat (3 h): 127.8 x10_4/uL
- RBC (3 h): 590 x10_4/ul
- Ret (3 h): 8.6%
- WBC (3 h): 75.8 x10_2/uL
- LIVER (3 h): 8.6 g
- A/G (3 h): 2.6
- ALP (3 h): 1665.4 IU/L
- ALT (3 h): 39.6 IU/L
- AST (3 h): 95.6 IU/L
- BUN (3 h): 19 mg/dL
- CRE (3 h): 0.5 mg/dL
- Ca (3 h): 11.4 mg/dL
- Cl (3 h): 103.6 meq/L
- DBIL (3 h): 0.014 mg/dL
- GLC (3 h): 236.8 mg/dL
- IP (3 h): 11.4 mg/dL
- K (3 h): 4.5 meq/L
- LDH (3 h): 215 IU/L
- Na (3 h): 137 meq/L
- PL (3 h): 129.4 mg/dL
- RALB (3 h): 3.9 g/dL
- TBIL (3 h): 0.026 mg/dL
- TC (3 h): 77.6 mg/dL
- TG (3 h): 56.8 mg/dL
- TP (3 h): 5.4 g/dL
- gamma-GTP (3 h): 0 IU/L
- TERMINAL_BW (6 h): 206.8 g
- APTT (6 h): 16.1 s
- Bas (6 h): 0%
- Eos (6 h): 0.4%
- Fbg (6 h): 247.6 mg/dL
- Hb (6 h): 12.6 g/dL
- Ht (6 h): 38%
- Lym (6 h): 70.4%
- MCH (6 h): 21.8 pg
- MCHC (6 h): 33.3%
- MCV (6 h): 65.6 fL
- Mono (6 h): 9.4%
- Neu (6 h): 19.8%
- PT (6 h): 11.7 s
- Plat (6 h): 116.6 x10_4/uL
- RBC (6 h): 580.4 x10_4/ul
- Ret (6 h): 10%
- WBC (6 h): 114 x10_2/uL
- LIVER (6 h): 8.7 g
- A/G (6 h): 2.7
- ALP (6 h): 1501.4 IU/L
- ALT (6 h): 36.2 IU/L
- AST (6 h): 96.6 IU/L
- BUN (6 h): 20.6 mg/dL
- CRE (6 h): 0.6 mg/dL
- Ca (6 h): 11.4 mg/dL
- Cl (6 h): 106.6 meq/L
- DBIL (6 h): 0.012 mg/dL
- GLC (6 h): 245.4 mg/dL
- IP (6 h): 10.2 mg/dL
- K (6 h): 4.3 meq/L
- LDH (6 h): 245.4 IU/L
- Na (6 h): 138.6 meq/L
- PL (6 h): 150.4 mg/dL
- RALB (6 h): 4 g/dL
- TBIL (6 h): 0.026 mg/dL
- TC (6 h): 93.4 mg/dL
- TG (6 h): 31.4 mg/dL
- TP (6 h): 5.5 g/dL
- gamma-GTP (6 h): 0 IU/L
- TERMINAL_BW (9 h): 192.8 g
- APTT (9 h): 16.1 s
- Bas (9 h): 0%
- Eos (9 h): 0.5%
- Fbg (9 h): 244.8 mg/dL
- Hb (9 h): 12.6 g/dL
- Ht (9 h): 37.6%
- Lym (9 h): 74.5%
- MCH (9 h): 21.8 pg
- MCHC (9 h): 33.5%
- MCV (9 h): 65 fL
- Mono (9 h): 5.8%
- Neu (9 h): 19.2%
- PT (9 h): 11.9 s
- Plat (9 h): 117.2 x10_4/uL
- RBC (9 h): 579.2 x10_4/ul
- Ret (9 h): 8.8%
- WBC (9 h): 92.8 x10_2/uL
- LIVER (9 h): 7.3 g
- A/G (9 h): 2.5
- ALP (9 h): 1343 IU/L
- ALT (9 h): 32.2 IU/L
- AST (9 h): 87.2 IU/L
- BUN (9 h): 20 mg/dL
- CRE (9 h): 0.5 mg/dL
- Ca (9 h): 11.1 mg/dL
- Cl (9 h): 108 meq/L
- DBIL (9 h): 0.02 mg/dL
- GLC (9 h): 247.5 mg/dL
- IP (9 h): 9.7 mg/dL
- K (9 h): 4.7 meq/L
- LDH (9 h): 154.8 IU/L
- Na (9 h): 138.2 meq/L
- PL (9 h): 146.5 mg/dL
- RALB (9 h): 3.8 g/dL
- TBIL (9 h): 0.0225 mg/dL
- TC (9 h): 88.2 mg/dL
- TG (9 h): 56.2 mg/dL
- TP (9 h): 5.4 g/dL
- gamma-GTP (9 h): 0.5 IU/L
- TERMINAL_BW (24 h): 207.1 g
- APTT (24 h): 15.7 s
- Bas (24 h): 0%
- Eos (24 h): 0.8%
- Fbg (24 h): 263.6 mg/dL
- Hb (24 h): 13.3 g/dL
- Ht (24 h): 39.9%
- Lym (24 h): 71%
- MCH (24 h): 21.6 pg
- MCHC (24 h): 33.3%
- MCV (24 h): 64.7 fL
- Mono (24 h): 8%
- Neu (24 h): 20.4%
- PT (24 h): 11.7 s
- Plat (24 h): 123.2 x10_4/uL
- RBC (24 h): 617.2 x10_4/ul
- Ret (24 h): 8.5%
- WBC (24 h): 120.4 x10_2/uL
- LIVER (24 h): 10.7 g
- A/G (24 h): 2.4
- ALP (24 h): 1582.4 IU/L
- ALT (24 h): 35.6 IU/L
- AST (24 h): 73.8 IU/L
- BUN (24 h): 19.2 mg/dL
- CRE (24 h): 0.4 mg/dL
- Ca (24 h): 11.6 mg/dL
- Cl (24 h): 105.2 meq/L
- DBIL (24 h): 0.018 mg/dL
- GLC (24 h): 176.2 mg/dL
- IP (24 h): 6.4 mg/dL
- K (24 h): 4.6 meq/L
- LDH (24 h): 149.2 IU/L
- Na (24 h): 140 meq/L
- PL (24 h): 173 mg/dL
- RALB (24 h): 4 g/dL
- TBIL (24 h): 0.018 mg/dL
- TC (24 h): 93.4 mg/dL
- TG (24 h): 169.6 mg/dL
- TP (24 h): 5.7 g/dL
- gamma-GTP (24 h): 0.8 IU/L
